Assay results published in ChEMBL document CHEMBL1201862, “PubChem BioAssay data set” (2004).
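Tested at 5 concentrations; 48 h exposure; 96-well plates; endpoints linearly interpolated, else capped at highest concentration. Here, GI50 denotes the concentration required for 50% inhibition of growth.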 Active and inactive are the calls of the source. No stated cut-off is given here; in the data, active = GI50 up to about 1.1 µM and inactive = higher.

How the values were obtained:
Assay in all cases: inhibition of tumour cell growth, NCI panel, 48 h
SR = test system: SR
CCRF-CEM = test system: CCRF-CEM
EKVX = test system: EKVX
Hs-578T = test system: Hs-578T
HOP-62 = test system: HOP-62
CAKI-1 = test system: CAKI-1
KM12 = test system: KM12
MDA-N = test system: MDA-N
K562 = test system: K562
A498 = test system: A498
MDA-MB-231 = test system: MDA-MB-231
SF-268 = test system: SF-268
SF-295 = test system: SF-295
SNB-19 = test system: SNB-19
NCI-H23 = test system: NCI-H23
MDA-MB-435 = test system: MDA-MB-435
OVCAR-5 = test system: OVCAR-5
RXF 393 = test system: RXF 393
A549 = test system: A549
NCI-H226 = test system: NCI-H226
MCF7 = test system: MCF7
NCI-H522 = test system: NCI-H522
NCI/ADR-RES = test system: NCI/ADR-RES
SW-620 = test system: SW-620
HL-60 = test system: HL-60
Malme-3M = test system: Malme-3M
ACHN = test system: ACHN
786-0 = test system: 786-0
M14 = test system: M14
HCT-116 = test system: HCT-116
OVCAR-3 = test system: OVCAR-3
HCC 2998 = test system: HCC 2998
SK-MEL-28 = test system: SK-MEL-28
UACC-257 = test system: UACC-257
LOX IMVI = test system: LOX IMVI
BT-549 = test system: BT-549
U-251 = test system: U-251
TK-10 = test system: TK-10
PC-3 = test system: PC-3
DU-145 = test system: DU-145
COLO 205 = test system: COLO 205
OVCAR-4 = test system: OVCAR-4
SK-OV-3 = test system: SK-OV-3
HT-29 = test system: HT-29
SNB-75 = test system: SNB-75
UACC-62 = test system: UACC-62
RPMI-8226 = test system: RPMI-8226
NCI-H460 = test system: NCI-H460
HOP-92 = test system: HOP-92
IGROV-1 = test system: IGROV-1
OVCAR-8 = test system: OVCAR-8
HCT-15 = test system: HCT-15
SN12C = test system: SN12C
T47D = test system: T47D
SK-MEL-2 = test system: SK-MEL-2
UO-31 = test system: UO-31
SK-MEL-5 = test system: SK-MEL-5
SF-539 = test system: SF-539
MOLT-4 = test system: MOLT-4

## COC(=O)/C=C\C(C#N)(C#N)/N=C/c1ccc(C)cc1
SR
  GI50: 0.706 µM (active)
CCRF-CEM
  GI50: 0.0673 µM (active)
EKVX
  GI50: 14.4 µM (inactive)
Hs-578T
  GI50: 20.5 µM (inactive)
HOP-62
  GI50: 19.3 µM (inactive)
CAKI-1
  GI50: 2.59 µM (inactive)
KM12
  GI50: 18 µM (inactive)
MDA-N
  GI50: 4.06 µM (inactive)
K562
  GI50: 3.04 µM (inactive)
A498
  GI50: 17.7 µM (inactive)
MDA-MB-231
  GI50: 15.5 µM (inactive)
SF-268
  GI50: 3.78 µM (inactive)
SF-295
  GI50: 25.2 µM (inactive)
SNB-19
  GI50: 19.5 µM (inactive)
NCI-H23
  GI50: 5.57 µM (inactive)
MDA-MB-435
  GI50: 2.21 µM (inactive)
OVCAR-5
  GI50: 19.7 µM (inactive)
RXF 393
  GI50: 1.9 µM (inactive)
A549
  GI50: 17.7 µM (inactive)
NCI-H226
  GI50: 8.75 µM (inactive)
MCF7
  GI50: 1.67 µM (inactive)
NCI-H522
  GI50: 0.378 µM (active)
NCI/ADR-RES
  GI50: 3.1 µM (inactive)
SW-620
  GI50: 1.95 µM (inactive)
HL-60
  GI50: 2.52 µM (inactive)
Malme-3M
  GI50: 2.28 µM (inactive)
ACHN
  GI50: 2.3 µM (inactive)
786-0
  GI50: 1.6 µM (inactive)
M14
  GI50: 2.01 µM (inactive)
HCT-116
  GI50: 1.76 µM (inactive)
OVCAR-3
  GI50: 2.6 µM (inactive)
HCC 2998
  GI50: 18.2 µM (inactive)
SK-MEL-28
  GI50: 5.5 µM (inactive)
UACC-257
  GI50: 4.24 µM (inactive)
LOX IMVI
  GI50: 2.33 µM (inactive)
BT-549
  GI50: 5.02 µM (inactive)
U-251
  GI50: 13 µM (inactive)
TK-10
  GI50: 1.8 µM (inactive)
PC-3
  GI50: 6.44 µM (inactive)
DU-145
  GI50: 5.86 µM (inactive)
COLO 205
  GI50: 1.97 µM (inactive)
OVCAR-4
  GI50: 3.89 µM (inactive)
SK-OV-3
  GI50: 17.6 µM (inactive)
HT-29
  GI50: 3.8 µM (inactive)
SNB-75
  GI50: 15.3 µM (inactive)
UACC-62
  GI50: 14.9 µM (inactive)
RPMI-8226
  GI50: 0.586 µM (active)
NCI-H460
  GI50: 19.6 µM (inactive)
HOP-92
  GI50: 1.09 µM (active)
IGROV-1
  GI50: 13.1 µM (inactive)
OVCAR-8
  GI50: 2.25 µM (inactive)
HCT-15
  GI50: 2.56 µM
SN12C
  GI50: 13.2 µM (inactive)
T47D
  GI50: 1.79 µM (inactive)
SK-MEL-2
  GI50: 16.3 µM (inactive)
UO-31
  GI50: 2.49 µM (inactive)
SK-MEL-5
  GI50: 12.6 µM (inactive)
SF-539
  GI50: 4.38 µM (inactive)
MOLT-4
  GI50: 0.778 µM (active)

## NC(=O)C[C@H](NC(=O)C1(NC(=O)[C@H](Cc2ccc(CP(=O)(O)O)cc2)NC(=O)C(=O)O)CCCCC1)C(=O)NCCCc1cccc2ccccc12
SR
  GI50: 1.82 µM (inactive)
CCRF-CEM
  GI50: 8.28 µM (inactive)
EKVX
  GI50: > 10 µM (inactive)
Hs-578T
  GI50: > 10 µM (inactive)
HOP-62
  GI50: > 10 µM (inactive)
CAKI-1
  GI50: > 10 µM (inactive)
KM12
  GI50: > 10 µM (inactive)
MDA-N
  GI50: > 10 µM (inactive)
K562
  GI50: > 10 µM (inactive)
A498
  GI50: > 10 µM (inactive)
MDA-MB-231
  GI50: > 10 µM (inactive)
SF-268
  GI50: > 10 µM (inactive)
SF-295
  GI50: > 10 µM (inactive)
SNB-19
  GI50: > 10 µM (inactive)
NCI-H23
  GI50: > 10 µM (inactive)
MDA-MB-435
  GI50: > 10 µM (inactive)
OVCAR-5
  GI50: > 10 µM (inactive)
RXF 393
  GI50: > 10 µM (inactive)
A549
  GI50: > 10 µM (inactive)
NCI-H226
  GI50: 7.45 µM (inactive)
MCF7
  GI50: > 10 µM (inactive)
NCI-H522
  GI50: > 10 µM (inactive)
NCI/ADR-RES
  GI50: > 10 µM (inactive)
SW-620
  GI50: > 10 µM (inactive)
HL-60
  GI50: > 10 µM (inactive)
Malme-3M
  GI50: > 10 µM (inactive)
ACHN
  GI50: > 10 µM (inactive)
786-0
  GI50: > 10 µM (inactive)
M14
  GI50: > 10 µM (inactive)
HCT-116
  GI50: > 10 µM (inactive)
OVCAR-3
  GI50: > 10 µM (inactive)
HCC 2998
  GI50: > 10 µM (inactive)
SK-MEL-28
  GI50: > 10 µM (inactive)
UACC-257
  GI50: > 10 µM (inactive)
LOX IMVI
  GI50: > 10 µM (inactive)
BT-549
  GI50: > 10 µM (inactive)
U-251
  GI50: > 10 µM (inactive)
TK-10
  GI50: > 10 µM (inactive)
PC-3
  GI50: > 10 µM (inactive)
DU-145
  GI50: > 10 µM (inactive)
COLO 205
  GI50: > 10 µM (inactive)
OVCAR-4
  GI50: > 10 µM (inactive)
SK-OV-3
  GI50: > 10 µM (inactive)
HT-29
  GI50: > 10 µM (inactive)
SNB-75
  GI50: > 10 µM (inactive)
UACC-62
  GI50: > 10 µM (inactive)
RPMI-8226
  GI50: > 10 µM (inactive)
NCI-H460
  GI50: > 10 µM (inactive)
HOP-92
  GI50: > 10 µM (inactive)
IGROV-1
  GI50: > 10 µM (inactive)
OVCAR-8
  GI50: > 10 µM (inactive)
HCT-15
  GI50: > 10 µM
SN12C
  GI50: > 10 µM (inactive)
T47D
  GI50: > 10 µM (inactive)
SK-MEL-2
  GI50: > 10 µM (inactive)
UO-31
  GI50: > 10 µM (inactive)
SK-MEL-5
  GI50: > 10 µM (inactive)
SF-539
  GI50: > 10 µM (inactive)
MOLT-4
  GI50: > 10 µM (inactive)
